Laboratory results published in patent EP2970215B1, “PYRROLIDINE DERIVATIVES, PHARMACEUTICAL COMPOSITIONS CONTAINING THEM, AND THEIR USE IN THERAPY” (AbbVie Deutschland GmbH & Co. KG, priority 2013, dated 2014).

Target: T1, human GlyT1c transporter (Homo sapiens, UniProt P48067)
T1 construct: expressed in transfected cells; host or cells: CHO cells (recombinant; line hGlyT1c_5_CHO is named for the uptake assay)
T1 sequence (P48067 1-706): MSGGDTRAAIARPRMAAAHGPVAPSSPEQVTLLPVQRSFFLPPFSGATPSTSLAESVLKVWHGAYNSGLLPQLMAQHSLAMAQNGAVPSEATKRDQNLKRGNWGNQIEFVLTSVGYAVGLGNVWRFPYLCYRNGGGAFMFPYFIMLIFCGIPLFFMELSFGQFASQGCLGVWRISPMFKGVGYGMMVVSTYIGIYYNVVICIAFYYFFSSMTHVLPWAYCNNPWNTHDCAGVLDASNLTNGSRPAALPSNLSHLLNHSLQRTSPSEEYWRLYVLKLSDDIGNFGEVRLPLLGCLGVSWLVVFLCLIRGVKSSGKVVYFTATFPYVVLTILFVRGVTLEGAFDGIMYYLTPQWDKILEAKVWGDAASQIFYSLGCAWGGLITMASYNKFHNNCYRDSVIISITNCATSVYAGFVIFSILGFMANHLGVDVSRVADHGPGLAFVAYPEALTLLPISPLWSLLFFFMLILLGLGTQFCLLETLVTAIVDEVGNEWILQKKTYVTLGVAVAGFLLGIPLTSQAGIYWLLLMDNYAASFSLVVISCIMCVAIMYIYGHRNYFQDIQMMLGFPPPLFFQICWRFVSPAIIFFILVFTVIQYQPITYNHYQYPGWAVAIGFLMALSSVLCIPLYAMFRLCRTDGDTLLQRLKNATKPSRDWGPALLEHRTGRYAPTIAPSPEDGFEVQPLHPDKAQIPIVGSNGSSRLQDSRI
Assay: Radioligand binding assay using recombinant CHO cell membranes expressing human GlyT1
Details: radioligand binding, recombinant CHO cell membranes expressing human GlyT1c
From the text: 2. Radioligand binding assays using recombinant CHO cell membranes expressing human GlyT1: […]

Row | Ki | Compound
1 | ≤ 1000 nM | Cn1cnc(S(=O)(=O)N2C[C@@H](OCCNCC(F)(F)F)[C@H](c3ccc(F)cc3)C2)c1 (relative stereo) [Example 814, 2,2,2-trifluoro-N-[2-({trans-4-(4-fluorophenyl)-1-[(1-methyl-1H-imidazol-4-yl)sulfonyl]pyrrolidin-3-yl}oxy)ethyl]ethanamine]
2 | ≤ 100 nM | Cn1cnc(S(=O)(=O)N2C[C@@H](Nc3ccc(F)c(Cl)c3)[C@H](C3CCCCO3)C2)c1 (relative stereo) [Example 815, Trans-N-(3-chloro-4-fluorophenyl)-1-[(1-methyl-1H-imidazol-4-yl)sulfonyl]-4-(tetrahydro-2H-pyran-2-yl)pyrrolidin-3-amine]
3 | ≤ 10 nM | Cn1cnc(S(=O)(=O)N2C[C@@H](Nc3cccc(OCC(F)(F)F)c3)[C@H](C3CCCCO3)C2)c1 (relative stereo) [Example 816, Trans-1-[(1-methyl-1H-imidazol-4-yl)sulfonyl]-4-(tetrahydro-2H-pyran-2-yl)-N-[3-(2,2,2-trifluoroethoxy)phenyl]pyrrolidin-3-amine]
4 | ≤ 10 nM | Cn1cc(S(=O)(=O)N2C[C@@H](NCc3ccc(C(F)(F)F)cc3Cl)[C@H](c3ncccc3F)C2)nn1 (relative stereo) [Example 818, Trans-N-[2-chloro-4-(trifluoromethyl)benzyl]-4-(3-fluoropyridin-2-yl)-1-[(1-methyl-1H-1,2,3-triazol-4-yl)sulfonyl]pyrrolidin-3-amine]
5 | ≤ 100 nM | Cn1cnc(S(=O)(=O)N2C[C@@H](Nc3cccc(OCC(F)(F)F)c3)[C@H](C3CCCO3)C2)c1 (relative stereo) [Example 819, Trans-1-[(1-methyl-1H-imidazol-4-yl)sulfonyl]-4-(tetrahydrofuran-2-yl)-N-[3-(2,2,2-trifluoroethoxy)phenyl]pyrrolidin-3-amine]
6 | ≤ 1000 nM | Cn1cnc(S(=O)(=O)N2C[C@@H](Nc3ccc(F)c(Cl)c3)[C@H](C3CCCO3)C2)c1 (relative stereo) [Example 824, Trans-N-(3-chloro-4-fluorophenyl)-1-[(1-methyl-1H-imidazol-4-yl)sulfonyl]-4-(tetrahydrofuran-2-yl)pyrrolidin-3-amine]
7 | ≤ 1000 nM | Cn1cnc(S(=O)(=O)N2C[C@@H](Nc3cccc(C(F)(F)F)c3)[C@H](C3CCOC3)C2)c1 (relative stereo) [Example 827, trans-1-[(1-methyl-1H-imidazol-4-yl)sulfonyl]-4-(tetrahydrofuran-3-yl)-N-[3 - (trifluoromethyl)phenyl]pyrrolidin-3-amine]
8 | ≤ 10000 nM | Cc1cccc(N[C@@H]2CN(S(=O)(=O)c3cn(C)cn3)C[C@H]2C2CCOC2)c1 (relative stereo) [Example 828, trans-1-[(1-methyl-1H-imidazol-4-yl)sulfonyl]-N-(3-methylphenyl)-4-(tetrahydrofuran-3-yl)pyrrolidin-3-amine]
9 | ≤ 10000 nM | Cn1cnc(S(=O)(=O)N2C[C@@H](Nc3cccc(Cl)c3)[C@H](C3CCOC3)C2)c1 (relative stereo) [Example 829, trans-N-(3-chlorophenyl)-1-[(1-methyl-1H-imidazol-4-yl)sulfonyl]-4-(tetrahydrofuran-3-yl)pyrrolidin-3-amine]
10 | ≤ 10000 nM | Cn1cnc(S(=O)(=O)N2C[C@@H](Nc3ccc(F)c(Cl)c3)[C@H](C3CCOC3)C2)c1 (relative stereo) [Example 830, trans -N-(3-chloro-4-fluorophenyl)-1-[(1-methyl-1H-imidazol-4-yl)sulfonyl] -4-(tetrahydrofuran-3 - yl)pyrrolidin-3-amine]
11 | ≤ 1000 nM | Cn1cnc(S(=O)(=O)N2C[C@@H](Nc3ccc(F)c(OC(F)(F)F)c3)[C@H](C3CCOC3)C2)c1 (relative stereo) [Example 831, trans -N-[4-fluoro-3-(trifluoromethoxy)phenyl]-1-[(1-methyl-1 H-imidazol-4-yl)sulfonyl] -4-(tetrahydrofuran-3-yl)pyrrolidin-3-amine]
12 | ≤ 1000 nM | Cn1cnc(S(=O)(=O)N2C[C@@H](Nc3ccc(F)c(C(F)(F)F)c3)[C@H](C3CCOC3)C2)c1 (relative stereo) [Example 832, trans-N-[4-fluoro-3-(trifluoromethyl)phenyl]-1-[(1-methyl-1H-imidazol-4-yl)sulfonyl]-4-(tetrahydrofuran-3-yl)pyrrolidin-3-amine]
13 | ≤ 10000 nM | Cn1cnc(S(=O)(=O)N2C[C@@H](Nc3ccc(Cl)c(C(F)(F)F)c3)[C@H](C3CCOC3)C2)c1 (relative stereo) [Example 833, trans-N-[4-chloro-3-(trifluoromethyl)phenyl]-1-[(1-methyl-1H-imidazol-4-yl)sulfonyl]-4-(tetrahydrofuran-3-yl)pyrrolidin-3-amine]
14 | ≤ 1000 nM | Cn1cnc(S(=O)(=O)N2C[C@@H](Nc3cccc(OCC(F)(F)F)c3)[C@H](C3CCOC3)C2)c1 (relative stereo) [Example 834, trans-1-[(1-methyl-1H-imidazol-4-yl)sulfonyl]-4-(tetrahydrofuran-3-yl)-N-[3-(2,2,2-trifluoroethoxy)phenyl]pyrrolidin-3-amine]
15 | ≤ 1000 nM | Cn1cnc(S(=O)(=O)N2C[C@@H](Nc3cccc(OC(F)(F)F)c3)[C@H](C3CCOC3)C2)c1 (relative stereo) [Example 835, trans-1-[(1-methyl-1H-imidazol-4-yl)sulfonyl]-4-(tetrahydrofuran-3-yl)-N-[3-(trifluoromethoxy)phenyl]pyrrolidin-3-amine]
16 | ≤ 10 nM | Cn1cc(S(=O)(=O)N2C[C@@H](Nc3cccc(OCC(F)(F)F)c3)[C@H](c3ccc(F)cc3)C2)nn1 (relative stereo) [Example 836, trans-4-(4-fluorophenyl)-1-[(1-methyl-1H-1,2,3-triazol-4-yl)sulfonyl]-N-[3-(2,2,2-trifluoroethoxy)phenyl]pyrrolidin-3-amine]
17 | ≤ 100 nM | Cn1cnc(S(=O)(=O)N2C[C@@H](Nc3ccc(F)c(C(F)(F)F)c3)[C@H](C3CCCO3)C2)c1 (relative stereo) [Example 843, Trans-N-[4-fluoro-3-(trifluoromethyl)phenyl]-1-[(1-methyl-1H-imidazol-4-yl)sulfonyl]-4-(tetrahydrofuran-2-yl)pyrrolidin-3-amine]
18 | ≤ 1000 nM | Cn1cnc(S(=O)(=O)N2C[C@@H](Nc3cc(C(F)(F)F)c(Cl)cn3)[C@H](C3CCCO3)C2)c1 (relative stereo) [Example 844, 5-Chloro-N-[trans-1-[(1-methyl-1H-imidazol-4-yl)sulfonyl]-4-(tetrahydrofuran-2-yl)pyrrolidin-3-yl]-4-(trifluoromethyl)pyridin-2-amine]
19 | ≤ 1000 nM | Cc1cc(N[C@@H]2CN(S(=O)(=O)c3cn(C)cn3)C[C@H]2C2CCCO2)ccc1F (relative stereo) [Example 845, Trans-N-(4-fluoro-3-methylphenyl)-1-[(1-methyl-1H-imidazol-4-yl)sulfonyl]-4-(tetrahydrofuran-2-yl)pyrrolidin-3-amine]
20 | ≤ 100 nM | Cn1cnc(S(=O)(=O)N2C[C@@H](Nc3ccc(F)c(C(F)(F)F)c3)[C@H](C3CCCCO3)C2)c1 (relative stereo) [Example 846, Trans-N-[4-fluoro-3-(trifluoromethyl)phenyl]-1-[(1-methyl-1H-imidazol-4-yl)sulfonyl]-4-(tetrahydro-2H-pyran-2-yl)pyrrolidin-3-amine]
21 | ≤ 100 nM | Cc1cc(N[C@@H]2CN(S(=O)(=O)c3cn(C)cn3)C[C@H]2C2CCCCO2)ccc1F (relative stereo) [Example 847, Trans-N-(4-fluoro-3-methylphenyl)-1-[(1-methyl-1H-imidazol-4-yl)sulfonyl]-4-(tetrahydro-2H-pyran-2-yl)pyrrolidin-3-amine]
22 | ≤ 1000 nM | Cn1cnc(S(=O)(=O)N2C[C@@H](Nc3cc(C(F)(F)F)c(Cl)cn3)[C@H](C3CCCCO3)C2)c1 (relative stereo) [Example 848, 5-Chloro-N-[trans-1-[(1-methyl-1H-imidazol-4-yl)sulfonyl]-4-(tetrahydro-2H-pyran-2-yl)pyrrolidin-3-yl]-4-(trifluoromethyl)pyridin-2-amine]
23 | ≤ 100 nM | Cn1cnc(S(=O)(=O)N2C[C@@H](Nc3cccc(Cl)c3)[C@H](C3CCCCO3)C2)c1 (relative stereo) [Example 849, Trans-N-(3-chlorophenyl)-1-[(1-methyl-1H-imidazol-4-yl)sulfonyl]-4-(tetrahydro-2H-pyran-2-yl)pyrrolidin-3-amine]
24 | ≤ 1000 nM | Cn1cnc(S(=O)(=O)N2C[C@@H](Nc3cccc(Cl)c3)[C@H](C3CCCO3)C2)c1 (relative stereo) [Example 850, Trans-N-(3-chlorophenyl)-1 - [(1-methyl-1H-imidazol-4-yl)sulfonyl] -4-(tetrahydrofuran-2-yl)pyrrolidin-3-amine]

Row | Compound | Ki
25 | Cn1cnc(S(=O)(=O)N2C[C@@H](NCc3ccc(C(F)(F)F)cc3Cl)[C@H](C3CCCO3)C2)c1 (relative stereo) [Example 822, Trans-N-[2-chloro-4-(trifluoromethyl)benzyl]-1-[(1-methyl-1H-imidazol-4-yl)sulfonyl]-4-(tetrahydrofuran-2-yl)pyrrolidin-3-amine] | ≤ 1000 nM
